The structures appear in SMILES notation.

Assay type in all cases: biochemical
In one assay the target is T1, aggrecanase-1 (Homo sapiens, UniProt O75173).
T1 sequence (O75173 213-837): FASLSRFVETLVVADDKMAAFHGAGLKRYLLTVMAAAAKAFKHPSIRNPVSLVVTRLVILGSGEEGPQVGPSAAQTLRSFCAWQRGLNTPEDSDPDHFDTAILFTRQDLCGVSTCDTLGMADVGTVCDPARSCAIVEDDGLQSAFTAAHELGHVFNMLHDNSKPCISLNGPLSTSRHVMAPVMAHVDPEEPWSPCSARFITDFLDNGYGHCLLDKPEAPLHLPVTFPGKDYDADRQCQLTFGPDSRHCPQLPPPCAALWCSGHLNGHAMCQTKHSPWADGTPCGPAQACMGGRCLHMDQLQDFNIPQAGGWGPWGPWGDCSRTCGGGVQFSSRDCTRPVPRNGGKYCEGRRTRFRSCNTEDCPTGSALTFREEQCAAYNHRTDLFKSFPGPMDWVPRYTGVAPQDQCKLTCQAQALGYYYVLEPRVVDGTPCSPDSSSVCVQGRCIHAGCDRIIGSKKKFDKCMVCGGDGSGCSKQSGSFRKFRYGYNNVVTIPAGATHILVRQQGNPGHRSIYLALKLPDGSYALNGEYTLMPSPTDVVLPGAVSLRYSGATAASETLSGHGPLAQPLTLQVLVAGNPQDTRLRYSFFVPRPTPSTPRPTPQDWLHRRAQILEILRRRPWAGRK
Briefly: Aggrecanase-1 inhibitory action, Particle Assay (GAG release from aggrecan-containing polyacrylamide particles). The conditions noted are these: 37° C. for 15 hr, read-out: Experimental Example 1 IC50 AG1. An outline of the steps:
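IC50 (μM) derived from % inhibition, referenced to enzyme-free and inhibitor-free wells, of GAG release read as 1,9-dimethylmethylene blue absorbance at 595 nm (chondroitin sulfate standard). Substrate: aggrecan-bearing polyacrylamide particles, exposed to enzyme plus compound in Tris-HCl for 15 hr at 37 °C.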

A further assay deals with T2, MMP-1 (Homo sapiens, UniProt P03956).
T2 sequence (P03956 100-469): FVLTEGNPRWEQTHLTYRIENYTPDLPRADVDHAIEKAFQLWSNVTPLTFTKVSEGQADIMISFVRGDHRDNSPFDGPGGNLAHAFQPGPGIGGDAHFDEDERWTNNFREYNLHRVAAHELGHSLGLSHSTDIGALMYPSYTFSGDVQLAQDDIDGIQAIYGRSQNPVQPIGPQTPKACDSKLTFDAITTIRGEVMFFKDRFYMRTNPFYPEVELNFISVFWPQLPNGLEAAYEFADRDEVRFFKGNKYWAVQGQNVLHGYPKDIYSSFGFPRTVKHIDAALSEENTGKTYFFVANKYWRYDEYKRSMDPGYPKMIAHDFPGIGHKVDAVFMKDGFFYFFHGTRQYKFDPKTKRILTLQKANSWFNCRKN
As to the kind of experiment: MMP-1 inhibitory action, Type I collagen Activity Measurement kit (FITC-labeled collagen type I). The note with it: 37° C. for 3 hr, read-out: Experimental Example 2 IC50 MMP1.

A further assay addresses T3, Recombinant Human MMP-13 (Homo sapiens, UniProt P45452).
T3 construct: purchased R&D systems 511-MM
Briefly: MMP-13 inhibition, MMP-13 specific fluorescent substrate with quencher. The conditions noted are these: synthetic substrate 7-MCA-Pro-CHA-Gly-NVal-His-Ala-DPA, 25° C. for 1 h; read-out: Experimental Example 3 IC50 MMP13. The method, then: Inhibitory activity of tested compounds on MMP-13 was measured using MMP-13 specific fluorescent substrate with quencher.
The enzyme and substrate were diluted with Tris-HCl buffer, and test compounds were diluted with dimethyl sulfoxide (DMSO).
Test compounds and the enzyme (Recombinant Human MMP-13: R&D systems, 511-MM) were added into 96-well plate. The reaction was initiated by adding synthetic substrate (7-MCA-Pro-CHA-Gly-NVal-His-Ala-DPA: enzyme systems products, Met-06) into the plate. After incubation at 25° C. for 1 h, the reaction was terminated by addition of reaction terminating solution containing acetic acid. Fluorescence intensity of each well was measured (Ex: 325 nm, Em: 405 nm) and the MMP-13 inhibitory activity of the compound in each well (%) was calculated based on the values of enzyme-free well and inhibitor-free well. The inhibitory activity of the compound was represented as IC50 (μM).

For the molecule `O=C(O)[C@@]12C[C@@]1(c1ccccc1)COCN2S(=O)(=O)c1ccc(-c2ccc(Cl)cc2)s1` (relative stereo) [Example 2-01, (1R*,6S*)-2-[5-(4-chlorophenyl)-thiophene-2-sulfonyl]-6-phenyl-4-oxa-2-aza-bicyclo[4.1.0]heptane-1-carboxylic acid], the IC50 is not below 1000 nM at aggrecanase-1, not below 10000 nM at MMP-1 and not below 1000 nM at Recombinant Human MMP-13.
Consider `O=C(O)[C@@]1(N(CCNS(=O)(=O)C(F)(F)F)S(=O)(=O)c2ccc(-c3ccc(Cl)cc3)cc2)C[C@H]1c1cccc(NS(=O)(=O)CCN2CCCCC2)c1` (relative stereo) [Example 1-90, (1R*,2S*)-1-[(4′-chloro-biphenyl-4-sulfonyl)-(2-trifluoromethanesulfonylamino-ethyl)-amino]-2-[3-(2-piperidin-1-yl-ethanesulfonylamino)-phenyl]-cyclopropanecarboxylic acid], for which the IC50 at aggrecanase-1 is less than 1000 nM; at MMP-1, not below 10000 nM.
The matching figures for `O=C(O)CN([C@]1(C(=O)O)C[C@H]1c1cc(Cl)ccc1Cl)S(=O)(=O)c1ccc(-c2ccc(Cl)cc2)cc1` (relative stereo) [Example 1-24, (1R*,2S*)-1-[carboxymethyl-(4′-chloro-biphenyl-4-sulfonyl)-amino]-2-(2,5-dichloro-phenyl)-cyclopropanecarboxylic acid]: less than 1000 nM and not below 10000 nM.
On to `O=C(O)CN([C@]1(C(=O)O)C[C@H]1c1cccc(OC2CCNCC2)c1)S(=O)(=O)c1ccc(-c2ccc(Cl)cc2)cc1` (relative stereo) [Example 1-68, (1R*,2S*)-1-[carboxymethyl-(4′-chloro-biphenyl-4-sulfonyl)-amino]-2-[3-(piperidin-4-yloxy)-phenyl]-cyclopropanecarboxylic acid], for which the IC50 is less than 1000 nM on aggrecanase-1 and not below 10000 nM at MMP-1.
In the case of `CS(=O)(=O)NCCN([C@]1(C(=O)O)C[C@H]1c1ccccc1)S(=O)(=O)c1ccc(-c2ccc(Cl)cc2)cc1` (relative stereo) [Example 1-7, (1R*,2S*)-1-[(4′-chloro-biphenyl-4-sulfonyl)-(2-methanesulfonylamino-ethyl)-amino]-2-phenyl-cyclopropanecarboxylic acid], the IC50 at aggrecanase-1 was less than 1000 nM; on MMP-1, not below 10000 nM.
Take `O=C(O)CN([C@]1(C(=O)O)C[C@H]1c1ccccc1OCc1ccccc1)S(=O)(=O)c1ccc(-c2ccc(Cl)cc2)cc1` (relative stereo) [Example 1-40, (1R*,2S*)-2-(2-benzyloxy-phenyl)-1-[carboxymethyl-(4′-chloro-biphenyl-4-sulfonyl)-amino]-cyclopropanecarboxylic acid]: the results for the IC50 on aggrecanase-1 and at MMP-1 were less than 100 nM and not below 10000 nM, respectively.
Consider `O=C(O)CN([C@]1(C(=O)O)C[C@H]1c1ccccc1Cl)S(=O)(=O)c1ccc(-c2ccc(Cl)cc2)cc1` (relative stereo) [Example 1-13, (1R*,2S*)-1-[carboxymethyl-(4′-chloro-biphenyl-4-sulfonyl)-amino]-2-(2-chloro-phenyl)-cyclopropanecarboxylic acid], for which the IC50 on aggrecanase-1 is less than 1000 nM; at MMP-1, not below 10000 nM.
In the case of `O=C(O)c1ccc(CN([C@]2(C(=O)O)C[C@H]2c2ccccc2)S(=O)(=O)c2ccc(-c3ccc(Cl)cc3)cc2)o1` (relative stereo) [Example 1-55, 5-{[((1R*,2S*)-1-carboxy-2-phenyl-cyclopropyl)-(4′-chloro-biphenyl-4-sulfonyl)-amino]-methyl}-furan-2-carboxylic acid], the figures for the IC50 at aggrecanase-1 and at MMP-1 were less than 1000 nM and not below 10000 nM, respectively.
For `O=C(O)CN(C1(C(=O)O)CC1c1cccc(OCc2ccccc2)c1)S(=O)(=O)c1ccc(-c2ccc(Cl)cc2)cc1` (centres unmarked) [Example 1-50], the IC50 on aggrecanase-1 was less than 1000 nM; at MMP-1, not below 1000 nM.
Consider `CC(C)(C)OC(=O)N1CCC([C@H]2C[C@]2(C(=O)O)N(Cc2cccc(C(=O)O)c2)S(=O)(=O)c2ccc(-c3ccc(Cl)cc3)cc2)CC1` (relative stereo) [Example 1-70, 4-{(1R*,2S*)-2-carboxy-2-[(3-carboxy-benzyl)-(4′-chloro-biphenyl-4-sulfonyl)-amino]-cyclopropyl}-piperidin-1-carboxylic acid tert-butyl ester], for which the IC50 at aggrecanase-1 was less than 1000 nM; on MMP-1, not below 10000 nM.
Taken in the same sequence, the figures for `O=C(O)c1cccc(CN([C@]2(C(=O)O)C[C@H]2c2cccc(Oc3ccccc3)c2)S(=O)(=O)c2ccc(-c3ccc(Cl)cc3)cc2)c1` (relative stereo) [Example 1-51, (1R*,2S*)-3-{[[1-carboxy-2-(3-phenoxy-phenyl)-cyclopropyl]-(4′-chloro-biphenyl-4-sulfonyl)-amino]-methyl}-benzoic acid] were less than 100 nM and not below 10000 nM.
On to `O=C(O)CN([C@]1(C(=O)O)C[C@H]1c1ccc(Cl)cc1)S(=O)(=O)c1ccc(-c2ccc(Cl)cc2)cc1` (relative stereo) [Example 1-11, (1R*,2S*)-1-[carboxymethyl-(4′-chloro-biphenyl-4-sulfonyl)-amino]-2-(4-chloro-phenyl)-cyclopropanecarboxylic acid], for which the results for the IC50 on aggrecanase-1 and at MMP-1 were less than 1000 nM and not below 10000 nM, respectively.
As for `CS(=O)(=O)NC(=O)CN([C@]1(C(=O)O)C[C@H]1c1ccccc1)S(=O)(=O)c1ccc(-c2ccc(Cl)cc2)cc1` (relative stereo) [Example 1-38, (1R*,2S*)-1-[(4′-chloro-biphenyl-4-sulfonyl)-(2-methanesulfonylamino-2-oxo-ethyl)-amino]-2-phenyl-cyclopropanecarboxylic acid], the IC50 on aggrecanase-1 is less than 1000 nM; on MMP-1, not below 10000 nM.
The matching figures for `O=C(CN([C@]1(C(=O)O)C[C@H]1c1ccccc1)S(=O)(=O)c1ccc(-c2ccc(Cl)cc2)cc1)N1CCCC1` (relative stereo) [Example 1-45, (1R*,2S*)-1-[(4′-chloro-biphenyl-4-sulfonyl)-(2-oxo-2-pyrrolidin-1-yl-ethyl)-amino]-2-phenyl-cyclopropanecarboxylic acid]: less than 1000 nM and not below 10000 nM.
As to `O=C(O)c1ccc(CN([C@]2(C(=O)O)C[C@H]2c2ccccc2)S(=O)(=O)c2ccc(-c3ccc(Cl)cc3)cc2)cc1` (relative stereo) [Example 1-10, (1R*,2S*)-4-{[(1-carboxy-2-phenyl-cyclopropyl)-(4′-chloro-biphenyl-4-sulfonyl)-amino]-methyl}-benzoic acid], the IC50 was less than 100 nM at aggrecanase-1 and not below 10000 nM on MMP-1.
With `O=C(O)c1cccc(CN([C@]2(C(=O)O)C[C@H]2c2cccc(NCCN3CCCCC3)c2)S(=O)(=O)c2ccc(-c3ccc(Cl)cc3)cc2)c1` (relative stereo) [Example 1-91, 3-{[{(1R*,2S*)-1-carboxy-2-[3-(2-piperidin-1-yl-ethylamino)-phenyl]-cyclopropyl}-(4′-chloro-biphenyl-4-sulfonyl)-amino]-methyl}-benzoic acid], the IC50 was less than 1000 nM on aggrecanase-1 and not below 10000 nM at MMP-1.
Taken in the same sequence, the figures for `O=C(O)[C@@]1(N(CCCNc2nn[nH]n2)S(=O)(=O)c2ccc(-c3ccc(Cl)cc3)cc2)C[C@H]1c1ccccc1` (relative stereo) [Example 1-110, (1R*,2S*)-1-{(4′-chloro-biphenyl-4-sulfonyl)-[3-(2H-tetrazol-5-ylamino)-propyl]-amino}-2-phenyl-cyclopropanecarboxylic acid] were less than 1000 nM and not below 10000 nM.

Source of the values: patent publication US20050222146A1, “N-substituted-n-sulfonylaminocyclopropane compounds and pharmaceutical use thereof” (priority 2003, published 2005).
